Measurements reported in patent publication US8889731B2, “Compounds, compositions and methods for repelling blood-feeding arthropods and deterring their landing and feeding” (Contech Enterprises Inc., priority 2007, dated 2014).

System: Culex quinquefasciatus
Test: Arm-in-cage repellent/deterrent bioassay on exposed human forearm (modified WHO protocol), Culex quinquefasciatus
Type: in vivo
Experimental: Candidate repellents and deterrents were bioassayed according to a modified protocol from the World Health Organization (1996). At least 1 hour prior to each bioassay, 75 host-seeking non blood-fed, nulliparous, 5- to 8-day-old female Aedes aegypti, Anopheles gambiae or Culex quinquefasciatus were placed into a wood-framed cage (26.5 cm on each side and 42.5 cm high) with a wooden floor, screened mesh sides and top, and a clear acrylic front fitted with a cotton stockinette sleeve (10 cm diameter). The test subject's arm was covered with an elbow-length polyethylene glove with an excised patch (16.6 cm long, 6 cm wide) to expose the ventral forearm of the test subject. Candidate deterrents were formulated in mineral (paraffin) oil and applied to the exposed forearm 5 min prior to inserting the arm into the cage. The inserted arm remained in the cage for 3 min every 30 min. Prior to each 3-min bioassay period, the hand of the untreated arm was inserted into the cage to ascertain that it received 10 bites within 30 sec as an indication of “biting pressure”.
The bioassay was terminated when the treated arm received ≧2 bites in one 3-min bioassay period or one bite in each of two consecutive bioassay periods. The time elapsed from experiment initiation to first bite was recorded as deterrent failure or complete protection time.
N,N-diethyl-m-toluamide formulated in ethanol at a corresponding dose served as a positive control, and mineral oil by itself served as a negative control. On each day, only one candidate compound was tested, ensuring that any residual material in the chamber had disappeared before the next bioassay.
To determine the repellence and deterrence of 8-allylsulfanyloctan-1-ol against Culex quinquefasciatus, a 2% and 5% or a 10% formulation of 8-allylsulfanyloctan-1-ol in mineral oil was applied in Experiments 9-11 at a dose of 1.5 mg per cm^2 to the skin of the test person, and was bioassayed according to the protocol described under EXAMPLE 2. In Experiment 12, mineral oil by itself served as a negative control and was tested at the same dose (1.5 mg per cm^2) as in Experiments […]. Each of Experiments 9-11 was replicated 4 times.
To compare the repellence and deterrence against Culex quinquefasciatus caused by 8-allylsulfanyloctan-1-ol as a single active ingredient and by 8-allylsulfanyloctan-1-ol in combination with vanillin as a second active ingredient, we tested a 6.7% emulsion of vanillin (Experiment 22), a 6.7% emulsion of 8-allylsulfanyloctan-1-ol (Experiment 23) and a 13.4% emulsion of 8-allylsulfanyloctan-1-ol plus vanillin (1:1 ratio) (Experiment 24). 8-Allylsulfanyloctan-1-ol and vanillin were formulated in Emulsion No. 1 (see EXAMPLE 9). In each of Experiments […], test stimuli were applied at a dose of 1.5 mg per cm^2 to the skin of the test person, and were bioassayed according to the protocol described under EXAMPLE 2. In Experiment 25, Emulsion No. 1 served as a positive control and was tested at the same dose (1.5 mg per cm^2) as in Experiments 22-24. Each of Experiments 22-25 was replicated three times.

## C=CCSCCCCCCCCO [Compound 24, 8-allylsulfanyloctan-1-ol]
2% formulation in mineral oil, 1.5 mg per cm^2, Experiment 9
  protection from bites, average duration: 198 min
5% formulation in mineral oil, 1.5 mg per cm^2, Experiment 10
  protection from bites, average duration: 319 min
6.7% single active in Emulsion No. 1 (FIG. 9 legend: 2.0%), 1.5 mg per cm^2, Experiments 22, 23
  protection from bites, average duration: 242 min
10% formulation in mineral oil, 1.5 mg per cm^2, Experiment 11
  protection from bites, average duration: 495 min
10% formulation in mineral oil, Experiment 11, each of the three replicates
  protection status when experiment was terminated after eight hours: complete protection against bites
